Consider 93 compounds from a melting point compilation (Tetko et al.; mined from patent text by program, amines drawn as free bases though some values may be those of a salt).

`FC(F)(F)c1cccc(-c2snnc2S)c1` had a melting point of over 200 °C.

In the case of `CC1(C)C(c2ccccc2)=Nc2ccc(C3=NNC(=O)CC3)cc21`, the melting point was 200 to 201 °C.

`O=S(=O)(O)CCCNC1CCCC1` came in with a melting point of 280 to 282 °C.

`O=c1c2ccccc2n(CCCCCl)c2ccc(Cl)cc12` showed a melting point of 101 to 106 °C.

Compound `NC(=O)c1c(C(=O)O)cnn1-c1cccc(Cl)c1Cl` gave a melting point of 228 to 230 °C.

In turn, `N=C(NCC1(c2ccccc2)CC1)NN=Cc1c(Cl)cccc1Cl` gave a melting point of 136 to 138 °C.

In turn, `O=C(NCc1ccccn1)Nc1cc(N2CC(c3ccc(F)cc3)CC2=O)ccn1` (stereo not drawn) gave a melting point of 153 to 155 °C.

For the compound `COC(=O)C1=C(C)NC(c2cnc(Cl)s2)=NC1c1ccc(F)cc1Cl` (stereo not drawn), the melting point was over 230 °C.

The compound `Oc1cccc(CN2CCCC2)c1` registered a melting point of 100 to 102 °C.

With `O=[N+]([O-])c1sc2ccc(F)cc2c1Br`, the melting point fell in the range of 129 to 130 °C.

Compound `OCc1ncc2n1CCCC2` had a melting point of 188 to 199 °C.

Compound `CCOC(=O)CN(C)C(=O)c1ccccc1C(=O)c1cc(C(C)(C)C)c(O)c(C(C)(C)C)c1` displayed a melting point of 98 to 99 °C.

Consider `Cc1cc(C(=N)NO)ccc1-c1ccc(-c2nc3cc(C(=N)NO)ccc3[nH]2)cc1`, for which the melting point lay in the range of 300 to 302 °C.

`Cc1ccccc1-c1cc(Cl)cc2c1OC(CN)C2` (stereo not drawn): the melting point was 160 to 163 °C.

`COCN1C(=O)C(NC(=O)Nc2cccc(C(=O)NS(C)(=O)=O)c2)CN(c2ccccc2)c2ccccc21` (stereo not drawn) gave a melting point of 199 to 205 °C.

Take `C#CCN1CCC(N2C(=O)Nc3ccccc3C2c2ccccc2)CC1` (stereo not drawn): the melting point lay in the range of 198 to 201 °C.

Turning to `CN1CCN(c2c(F)cc3c(=O)c(C(=O)O)cn(C4COC4)c3c2Cl)CC1`, the melting point fell in the range of 211 to 212 °C.

Compound `CCCCCCC#Cc1csc(C=O)c1` had a melting point of 2 °C.

Compound `C=CCn1c(=O)c2cnc(-n3ccnc3)nc2n(C(C)C)c1=O` yielded a melting point of 158 to 160 °C.

`NNc1nc2ccc(C(F)(F)F)cc2n(OCc2ccccc2)c1=O` showed a melting point of 174 to 176 °C.

The compound `CC1Cc2cc(C#N)ccc2C1=O` (stereo not drawn) returned a melting point of 90 to 91 °C.

Consider `Nc1ccccc1/C=C/c1ncon1`, for which the melting point lay within 108 to 109 °C.

Regarding `O=C(Nc1cccc(S(=O)(=O)NCc2ccncc2)c1)c1cnn2c(C(F)(F)F)cc(-c3ccc(C(F)(F)F)cc3)nc12`, the melting point amounted to 251 °C.

The compound `Brc1ccc2nc(-c3coc4ccccc34)cn2c1` gave a melting point of 151 to 153 °C.

For the compound `COc1ccc2c(CO)c(F)ccc2c1C(F)(F)F`, the melting point lay in the range of 113 to 114 °C.

`CN1C(=O)C2CC2(c2ccc([N+](=O)[O-])cc2)C1=O` (stereo not drawn) yielded a melting point of 148 to 150 °C.

The compound `CC(=NOCC(=O)O)c1ccc(Cl)c(Cl)c1` yielded a melting point of 128 to 129 °C.

For `O=C(O)CCCc1ccc(-c2ccc([N+](=O)[O-])cc2)cc1`, the melting point lay in the range of 160 to 161 °C.

`COc1cc2c(cc1OC)C(=O)C(C#N)C2` (stereo not drawn) registered a melting point of 177 to 179 °C.

`COc1ccc(C(=O)Nc2ccc(F)c(F)c2)cc1NCc1ccc(C(=O)O)cc1` came in with a melting point of over 240 °C.

`CCC(=O)/C=C/c1c([N+](=O)[O-])ccc2c1OC(COS(=O)(=O)c1ccc(C)cc1)CO2` (stereo not drawn) gave a melting point of 114 °C.

`COc1ccnc2[nH]c(CO)cc12` returned a melting point of 210 to 212 °C.

As for `CC(C)(C)OC(=O)C(=CC1C(C(=O)O)C1(C)C)OC(C)(C)C` (stereo not drawn), the melting point is 85 °C.

The compound `COc1ccc(CC(=Nc2ccccc2)NC(=S)NCCO)cc1` yielded a melting point of 117 to 119 °C.

As to `COC(=O)C(=O)c1ccc(OCCOc2cc3ccccc3cc2O)cc1`, the melting point lay within 177 to 178 °C.

In turn, `CN1C(=O)C2=C(c3ccc([N+](=O)[O-])cc3)OC(=O)C2=C1c1ccccc1` displayed a melting point of 253 to 255 °C.

Take `COc1cc(C(=O)Cc2ccccc2)cc(Cl)c1Cl`: the melting point lay within 126 to 129 °C.

Consider `O=C(O)c1ccc(C(=O)/C=C/c2cc(-c3cccs3)ccc2N2CCCC2)cc1`, for which the melting point lay in the range of 208 to 209 °C.

For `C=CCn1c(C)nc2c3c(c(C(=O)OCC)cc21)C(=O)CC1(Cc2ccccc2C1)N3`, the melting point fell in the range of 183 to 184 °C.

Compound `c1ccc(-c2cccc3[nH]c4c(c23)CCNCC4)cc1` had a melting point of over 250 °C.

In the case of `CCOC(=O)c1ccc(CO)cn1`, the melting point came to 64 °C.

The compound `Cc1nsc(OCC(Cl)(Cl)Cl)c1S(=O)(=O)Cl` registered a melting point of 71 to 74 °C.

`Cn1c(=O)c2ccc(N)nc2n(C)c1=O`: the melting point fell in the range of 290 to 295 °C.

With `OCc1cc(N(c2ccccc2)c2ccccc2)c(CO)cc1N(c1ccccc1)c1ccccc1`, the melting point fell in the range of 208 to 210 °C.

`COc1cc(C=O)cc(OCCCC(=O)O)c1OC` yielded a melting point of 90 to 92 °C.

Regarding `COc1ccc(C=Cc2nc3c(c(=O)n(C)c(=O)n3C)n2C)cc1`, the melting point was over 320 °C.

Take `CC(C)On1c(C(C)C)nc2c(N)nc3ccccc3c21`: the melting point was 177 to 179 °C.

`C=C(C)c1ccc(C2COc3c(C)c(C)c(NC(=O)CC(C)(C)C)c(C)c32)cc1OC` (stereo not drawn) had a melting point of 186 to 187 °C.

Consider `CC1CCc2c(c3cc(Br)ccc3n2C(=O)OC(C)(C)C)C1` (stereo not drawn), for which the melting point worked out at 122 °C.

With `Oc1nc2ccccc2c(O)c1O`, the melting point was over 250 °C.

`CS(=O)(=O)CC(N)C1(c2ccc(Cl)cc2)CCC1` (stereo not drawn) yielded a melting point of 134 to 135 °C.

For `CCCCCCS(=O)(=O)c1c(Br)cc(N)cc1Br`, the melting point is 192 to 194 °C.

`CCc1ccc(-c2ccc3c(c2)C=C(C(=O)Nc2ccc(CN(C)C4CCOCC4)cc2)CCN3C)cc1CC` gave a melting point of 127 to 129 °C.

`CN1COc2cc3c4c(cccc4c21)C(=O)N(O)C3=O`: the melting point fell in the range of 263 to 265 °C.

In turn, `CNc1cc(Oc2cc(C(F)(F)F)nn2C)nc(Oc2cc(C(F)(F)F)nn2C)c1` came in with a melting point of 118 °C.

In the case of `COC(=O)C(Cl)=NNc1ccc(F)cc1`, the melting point was in the range of 110 to 113 °C.

For the compound `CCOC(=O)C(C)Oc1ccc(N(C)c2nc(Cl)c3cc(Cl)ccc3n2)cc1` (stereo not drawn), the melting point was over 250 °C.

`COc1cc(C=O)cc2c1OC1(C=C2Br)CCC1` showed a melting point of 128 to 129 °C.

With `CCCCCCCCCCC[C@H](CC(=O)N[C@H](CO)C(=O)OCc1ccccc1)OC(=O)CCCCCCCCC`, the melting point was in the range of 51 to 52 °C.

Take `Cc1ccc(C)n1-c1cccc(C(=O)O)c1`: the melting point is 148 to 150 °C.

Compound `COc1cccc2c1OC(COS(=O)(=O)c1ccc(C)cc1)C2` (stereo not drawn) had a melting point of 98 to 103 °C.

Take `COc1cccc(OCCCNC(=O)OC(C)(C)C)c1-c1cc(Nc2cnc(C#N)cn2)n[nH]1`: the melting point lay in the range of 214 to 216 °C.

`COc1cc(C(=O)NCc2ccc(N)cc2)cc(OC)c1OC(C)=O` yielded a melting point of 47 to 48 °C.

For `CN1Cc2c(-c3noc(CN)n3)ncn2-c2sccc2C1=O`, the melting point lay in the range of 181 to 183 °C.

Regarding `CS(=O)c1[nH]ccc1[N+](=O)[O-]` (stereo not drawn), the melting point lay in the range of 162 to 164 °C.

Regarding `CCn1cc(C(=O)O)c(=O)c2cc(F)c(N3CCC(CN)CC3)nc21`, the melting point is 203 to 206 °C.

With `FC(F)(F)c1ccc2c(Nc3ccncc3)noc2c1`, the melting point lay within 249 to 250 °C.

With `C(#CCN(c1ccccc1)c1ccccc1)CN(c1ccccc1)c1ccccc1`, the melting point is 84 to 86 °C.

`NC(=O)CNCC(=O)NCCCO` returned a melting point of 118 to 120 °C.

`COc1cc(NC(=O)OC(C)(C)C)ccc1OCCCN1CCN(c2ccccc2)CC1` yielded a melting point of 125 to 126 °C.

The compound `O=C(Cc1ccc(C(F)(F)F)cn1)c1ccc(Cl)cc1` had a melting point of 114 to 116 °C.

In turn, `OCCc1ccc(Nc2ncc3c(n2)-c2ccccc2C(c2ccc(Cl)c(Cl)c2)C3)cc1` (stereo not drawn) had a melting point of 94 to 96 °C.

In turn, `CCOCc1nc2c(N)nc3ccccc3c2n1Cc1cc(C)no1` returned a melting point of 178 to 180 °C.

Consider `Cn1ncc2c1-c1c(SC(C)(C)C)sc(C(=O)O)c1CC2`, for which the melting point is 277 to 278 °C.

`CN(C)CCOc1ccc2ccc(N)nc2n1`: the melting point came out at 105 °C.

`CCOC(=O)COc1cc(F)c(-c2ncnc(C(F)(F)F)c2Cl)cc1[N+](=O)[O-]` returned a melting point of 127 to 129 °C.

Take `CC1=c2cc(Br)ccc2=NC1=O`: the melting point was in the range of 119 to 120 °C.

As for `COC(=O)c1cnc(OC)c([N+](=O)[O-])c1`, the melting point was 118 to 119 °C.

`CC1(C)OC(=S)Nc2ccc(-c3cc(C#N)ccc3F)cc21` registered a melting point of 250 to 251 °C.

With `CCCCOC(=O)NS(=O)(=O)c1ccccc1-c1ccc(Cn2c(CCC)nc(SC)c2C(=O)O)cc1`, the melting point lay in the range of 202 to 204 °C.

For `Cc1c(C(=O)c2cnn(C(C)(C)C)c2O)ccc(S(C)(=O)=O)c1C1=NOC2CC12` (stereo not drawn), the melting point lay within 69 to 74 °C.

As to `O=C1CN2C(=O)N(c3cc(Cl)cc(Cl)c3)C(=O)C2(Cc2ccc(Br)cc2)C1` (stereo not drawn), the melting point turned out to be 85.4 °C.

The compound `Cc1cc(C)c2[nH]c(C(=O)O)cc2c1` registered a melting point of 254 to 256 °C.

`CCN1CCC(C(c2ccccc2)c2ccccc2)C(=O)C1` (stereo not drawn) came in with a melting point of 73 to 74 °C.

For the compound `CC(c1ccccc1N1CCCCC1)C(C(N)=O)c1ccc(C(=O)OCc2ccccc2)cc1` (stereo not drawn), the melting point lay within 126 to 128 °C.

Turning to `CON(c1ccc([N+](=O)[O-])cc1Cl)S(=O)(=O)c1cccc([N+](=O)[O-])c1`, the melting point was 168 to 169 °C.

Compound `BrC=C1c2ccccc2CCc2ccccc21` returned a melting point of 73.6 °C.

`COc1ccc2c(c1)-c1c(ccn1C[C@@H](C)O)C2` came in with a melting point of 75 °C.

Take `Oc1cccnc1Oc1cccc(Br)c1`: the melting point fell in the range of 107 to 108 °C.

Turning to `Cc1nc(-c2cccc(CN(C(=O)Nc3ccc(-c4ccccc4S(=O)(=O)NC(C)(C)C)cc3)c3ccccc3)c2)no1`, the melting point fell in the range of 191 to 192 °C.

`CS(=O)(=O)c1ccc(Oc2cc(OCc3ccccc3)c3[nH]c(C4=NCC(CC(=O)O)S4)cc3c2)cc1` (stereo not drawn) showed a melting point of 218 to 219 °C.

In turn, `COc1ccccc1-n1cnc2c(C(N)=O)nc(-c3cccc(O)c3)nc21` displayed a melting point of 230 to 231 °C.

On to `CN1CCNS(=O)(=O)c2cc(Oc3ccccc3)ccc21`, for which the melting point fell in the range of 128 to 131 °C.
